According to patent publication US5521069A, “Genomic DNA exons having exons encoding human pituitary adenylate cyclase activity peptide with 38 amino acids residues(PACAP38) and a promoter thereof” (Takeda Chemical Industries, Ltd., priority 1990, dated 1996):
Where no end group is shown, it is not given here.

Legend:
[1] = Hypotensive activity in anesthetized male Wistar rats; assay type: in vivo, rat; details: nembutal anesthesia
Description: Using male Wistar rats having a body weight of 350 g under nembutal anesthesia, the hypotensive activity was measured.

[2] = system: rat pituicytes; experiment: Adenylate Cyclase Stimulating Test in Rat Pituicyte Culture; assay type: cell-based; details: Experiment 2, blank 1.35 ± 0.05
Source text: The amino acid sequence of sheep PACAP38 is believed to be identical to that of human PACAP38. […] The minimum effective amount was 10^-12 M, and it was shown that the activity increased with increasing concentration.

Substance: PACAP38 NH2 (HSDGIFTDSYSRYRKQMAVKKYLAAVLGKRYKQRVKNK-NH2; UniProt P18509 132-169, looked up)
- Hypotensive activity (decrease from normal value) ([1]; dosage 0.3 n mole/kg): 3.2 ± 1.9 mm Hg
- Hypotensive activity (decrease from normal value) ([1]; dosage 1.0 n mole/kg): 17.4 ± 2.4 mm Hg
- Hypotensive activity (decrease from normal value) ([1]; dosage 3.0 n mole/kg): 29.8 ± 3.6 mm Hg

Substance: PACAP27 NH2 [Syn.27p-NH2]
- cAMP (M ± SEM) ([2]; 10^-7 M): 9.20 ± 0.20 p mol/ml
- cAMP (M ± SEM) ([2]; 10^-8 M): 9.20 ± 0.00 p mol/ml
- cAMP (M ± SEM) ([2]; 10^-9 M): 7.90 ± 0.30 p mol/ml
- cAMP (M ± SEM) ([2]; 10^-10 M): 4.00 ± 0.20 p mol/ml
- cAMP (M ± SEM) ([2]; 10^-11 M): 2.55 ± 0.15 p mol/ml
- cAMP (M ± SEM) ([2]; 10^-12 M): 2.05 ± 0.15 p mol/ml
- Hypotensive activity (decrease from normal value) ([1]; dosage 0.3 n mole/kg): 14.5 ± 3.1 mm Hg
- Hypotensive activity (decrease from normal value) ([1]; dosage 1.0 n mole/kg): 51.9 ± 9.6 mm Hg
- Hypotensive activity (decrease from normal value) ([1]; dosage 3.0 n mole/kg): 4.1 mm Hg
